Experimental data reported in ChEMBL document CHEMBL5321219, “Selective degradation of cellular BRD3 and BRD4-L promoted by PROTAC molecules in six cancer cell lines” (Eur J Med Chem, 2023).
pIC50, pKi: −log10 of the molar value. The source made the active and inactive calls. No cut-off for these calls is given here.

Legend:
[1] = system: MM1.S; test: Antiproliferative activity against human MM1.S cells assessed as cell growth inhibition measured after 4 days by CellTitre-Glo assay; type: functional, cell-based; details: 96 h
[2] = biological target: T1, Bromodomain-containing protein 3 (Homo sapiens, UniProt Q15059); test: Binding affinity to recombinant human BRD3 BD2 (306 to 417 residues) assessed as inhibition constant by fluorescence polarization binding assay
[3] = biological target: T1, Bromodomain-containing protein 3; test: Binding affinity to recombinant human BRD3 BD1 (24 to 144 residues) assessed as inhibition constant by fluorescence polarization binding assay
[4] = system: MV4-11; test: Antiproliferative activity against human MV4-11 cells assessed as cell growth inhibition measured after 3 days by CellTitre-Glo assay; type: functional, cell-based; details: MV4-11, 72 h
[5] = biological target: T2, Protein cereblon/Bromodomain-containing protein 3 (Homo sapiens) (UniProt Q15059+Q96SW2); test: PROTAC activity at CRBN/BRD3 in human HGC-27 cells assessed as induction of protein degradation at 1 uM measured around 1 to 3 hrs by Western blot analysis; type: cell-based; details: time 1-3 hrs
[6] = biological target: T2, Protein cereblon/Bromodomain-containing protein 3 (Homo sapiens); test: PROTAC activity at CRBN/BRD3 in human MCF7 cells assessed as induction of protein degradation at 1 to 50 uM measured after 24 hrs by Western blot analysis; type: cell-based; details: dose 1-50 µM
[7] = biological target: T3, Protein cereblon/Bromodomain-containing protein 2 (Homo sapiens) (UniProt P25440+Q96SW2); test: PROTAC activity at CRBN/BRD2 in human MV4-11 cells assessed as induction of protein degradation at 0.5 to 10 uM measured after 24 hrs by Western blot analysis; type: cell-based; details: dose 0.5-10 µM
[8] = biological target: T4, Protein cereblon/Bromodomain-containing protein 4 (Homo sapiens) (UniProt O60885+Q96SW2); test: PROTAC activity at CRBN/BRD4-L in human MM1.S cells assessed as induction of protein degradation at 1 uM measured after 1 to 24 hrs by Western blot analysis; type: cell-based; details: time 1-24 hrs
[9] = system: A549; test: Antiproliferative activity against human A549 cells assessed as cell growth inhibition measured after 4 days by CCK-8 assay; type: functional, cell-based; details: A549, 96 h
[10] = system: MCF7; test: Antiproliferative activity against human MCF7 cells assessed as cell growth inhibition measured after 4 days by CCK-8 assay; type: functional, cell-based; details: MCF7, 96 h
[11] = system: MM1.S; test: Downregulation of c-Myc expression in human MM1.S cells at 1 uM measured after 1 to 24 hrs by Western blot analysis; type: functional, cell-based; details: time 1-24 hrs
[12] = biological target: T3, Protein cereblon/Bromodomain-containing protein 2 (Homo sapiens); test: PROTAC activity at CRBN/BRD2 in human MCF7 cells assessed as induction of protein degradation at 1 uM measured around 1 to 3 hrs by Western blot analysis; type: cell-based; details: time 1-3 hrs
[13] = biological target: T2, Protein cereblon/Bromodomain-containing protein 3 (Homo sapiens); test: PROTAC activity at CRBN/BRD3 in human MCF7 cells assessed as induction of protein degradation at 1 uM measured around 1 to 3 hrs by Western blot analysis; type: cell-based; details: time 1-3 hrs
[14] = biological target: T4, Protein cereblon/Bromodomain-containing protein 4 (Homo sapiens); test: PROTAC activity at CRBN/BRD4-L in human MM1.S cells assessed as induction of protein degradation measured after 24 hrs by Western blot analysis; type: cell-based
[15] = system: HGC-27; test: Antiproliferative activity against human HGC-27 cells assessed as cell growth inhibition measured after 4 days by CCK-8 assay; type: functional, cell-based; details: HGC-27, 96 h
[16] = biological target: T3, Protein cereblon/Bromodomain-containing protein 2 (Homo sapiens); test: PROTAC activity at CRBN/BRD2 in human HGC-27 cells assessed as induction of protein degradation at 1 uM measured around 1 to 3 hrs by Western blot analysis; type: cell-based; details: time 1-3 hrs
[17] = biological target: T2, Protein cereblon/Bromodomain-containing protein 3 (Homo sapiens); test: PROTAC activity at CRBN/BRD3 in human HeLa cells assessed as induction of protein degradation at […] measured after 24 hrs by Western blot analysis; type: cell-based; details: dose lower 1.0 µM
[18] = biological target: T4, Protein cereblon/Bromodomain-containing protein 4 (Homo sapiens); test: PROTAC activity at CRBN/BRD4-S in human MM1.S cells assessed as induction of protein degradation at 1 uM measured after 1 to 24 hrs by Western blot analysis; type: cell-based; details: time 1-24 hrs
[19] = biological target: T2, Protein cereblon/Bromodomain-containing protein 3 (Homo sapiens); test: PROTAC activity at CRBN/BRD3 in human MM1.S cells assessed as induction of protein degradation measured after 24 hrs by Western blot analysis; type: cell-based
[20] = biological target: T4, Protein cereblon/Bromodomain-containing protein 4 (Homo sapiens); test: PROTAC activity at CRBN/BRD4-L in human HGC-27 cells assessed as induction of protein degradation at 1 uM measured around 1 to 3 hrs by Western blot analysis; type: cell-based; details: time 1-3 hrs
[21] = biological target: T4, Protein cereblon/Bromodomain-containing protein 4 (Homo sapiens); test: PROTAC activity at CRBN/BRD4-S in human MV4-11 cells assessed as induction of protein degradation at 0.5 to 10 uM measured after 24 hrs by Western blot analysis; type: cell-based; details: dose 0.5-10 µM
[22] = biological target: T2, Protein cereblon/Bromodomain-containing protein 3 (Homo sapiens); test: PROTAC activity at CRBN/BRD3 in human MM1.S cells assessed as induction of protein degradation at 1 uM measured after 1 to 24 hrs by Western blot analysis; type: cell-based; details: time 1-24 hrs
[23] = biological target: T4, Protein cereblon/Bromodomain-containing protein 4 (Homo sapiens); test: PROTAC activity at CRBN/BRD4-L in human HeLa cells assessed as induction of protein degradation at 1 to 50 uM measured after 24 hrs by Western blot analysis; type: cell-based; details: dose 1-50 µM
[24] = biological target: T4, Protein cereblon/Bromodomain-containing protein 4 (Homo sapiens); test: PROTAC activity at CRBN/BRD4-L in human MCF7 cells assessed as induction of protein degradation at 1 uM measured around 1 to 3 hrs by Western blot analysis; type: cell-based; details: time 1-3 hrs
[25] = biological target: T3, Protein cereblon/Bromodomain-containing protein 2 (Homo sapiens); test: PROTAC activity at CRBN/BRD2 in human MM1.S cells assessed as induction of protein degradation at 1 uM measured after 1 to 24 hrs by Western blot analysis; type: cell-based; details: time 1-24 hrs
[26] = biological target: T4, Protein cereblon/Bromodomain-containing protein 4 (Homo sapiens); test: PROTAC activity at CRBN/BRD4-L in human MV4-11 cells assessed as induction of protein degradation at 0.5 to 10 uM measured after 24 hrs by Western blot analysis; type: cell-based; details: dose 0.5-10 µM
[27] = biological target: T4, Protein cereblon/Bromodomain-containing protein 4 (Homo sapiens); test: PROTAC activity at CRBN/BRD4-L in human MM1.S cells assessed as induction of protein degradation at 1 uM measured around 1 to 3 hrs by Western blot analysis; type: cell-based; details: time 1-3 hrs
[28] = biological target: T3, Protein cereblon/Bromodomain-containing protein 2 (Homo sapiens); test: PROTAC activity at CRBN/BRD2 in human MM1.S cells assessed as induction of protein degradation at 1 uM measured around 1 to 3 hrs by Western blot analysis; type: cell-based; details: time 1-3 hrs
[29] = biological target: T4, Protein cereblon/Bromodomain-containing protein 4 (Homo sapiens); test: PROTAC activity at CRBN/BRD4-L in human MCF7 cells assessed as induction of protein degradation at 1 to 50 uM measured after 24 hrs by Western blot analysis; type: cell-based; details: dose 1-50 µM
[30] = biological target: T2, Protein cereblon/Bromodomain-containing protein 3 (Homo sapiens); test: PROTAC activity at CRBN/BRD3 in human MV4-11 cells assessed as induction of protein degradation at 0.5 to 10 uM measured after 24 hrs by Western blot analysis; type: cell-based; details: dose 0.5-10 µM
[31] = system: HepG2; test: Antiproliferative activity against human HepG2 cells assessed as cell growth inhibition measured after 4 days by CCK-8 assay; type: functional, cell-based; details: HepG2, 96 h
[32] = system: HeLa; test: Antiproliferative activity against human HeLa cells assessed as cell growth inhibition measured after 4 days by CCK-8 assay; type: functional, cell-based; details: 96 h
[33] = biological target: T2, Protein cereblon/Bromodomain-containing protein 3 (Homo sapiens); test: PROTAC activity at CRBN/BRD3 in human MM1.S cells assessed as induction of protein degradation at 1 uM measured around 1 to 3 hrs by Western blot analysis; type: cell-based; details: time 1-3 hrs
[34] = biological target: T4, Protein cereblon/Bromodomain-containing protein 4 (Homo sapiens); test: PROTAC activity at CRBN/BRD4-L in human MM1.S cells assessed as induction of protein degradation at 2 to 10 nM measured after 24 hrs by Western blot analysis; type: cell-based; details: dose 2-10 nM
[35] = biological target: T4, Protein cereblon/Bromodomain-containing protein 4 (Homo sapiens); test: PROTAC activity at CRBN/BRD4-S in human MM1.S cells assessed as induction of protein degradation at 2 to 10 nM measured after 24 hrs by Western blot analysis; type: cell-based; details: dose 2-10 nM
[36] = biological target: T2, Protein cereblon/Bromodomain-containing protein 3 (Homo sapiens); test: PROTAC activity at CRBN/BRD3 in human MM1.S cells assessed as induction of protein degradation at 2 to 10 nM measured after 24 hrs by Western blot analysis; type: cell-based; details: dose 2-10 nM
[37] = biological target: T3, Protein cereblon/Bromodomain-containing protein 2 (Homo sapiens); test: PROTAC activity at CRBN/BRD2 in human MM1.S cells assessed as induction of protein degradation at 2 to 10 nM measured after 24 hrs by Western blot analysis; type: cell-based; details: dose 2-10 nM
[38] = biological target: T2, Protein cereblon/Bromodomain-containing protein 3 (Homo sapiens); test: PROTAC activity at CRBN/BRD3 in human MM1.S cells assessed as induction of protein degradation at 2 nM measured after 24 hrs by Western blot analysis; type: cell-based
[39] = biological target: T4, Protein cereblon/Bromodomain-containing protein 4 (Homo sapiens); test: PROTAC activity at CRBN/BRD4-L in human MM1.S cells assessed as induction of protein degradation at 2 nM measured after 24 hrs by Western blot analysis; type: cell-based

T4 sequence (Q96SW2 whole entry, looked up, other chains not shown): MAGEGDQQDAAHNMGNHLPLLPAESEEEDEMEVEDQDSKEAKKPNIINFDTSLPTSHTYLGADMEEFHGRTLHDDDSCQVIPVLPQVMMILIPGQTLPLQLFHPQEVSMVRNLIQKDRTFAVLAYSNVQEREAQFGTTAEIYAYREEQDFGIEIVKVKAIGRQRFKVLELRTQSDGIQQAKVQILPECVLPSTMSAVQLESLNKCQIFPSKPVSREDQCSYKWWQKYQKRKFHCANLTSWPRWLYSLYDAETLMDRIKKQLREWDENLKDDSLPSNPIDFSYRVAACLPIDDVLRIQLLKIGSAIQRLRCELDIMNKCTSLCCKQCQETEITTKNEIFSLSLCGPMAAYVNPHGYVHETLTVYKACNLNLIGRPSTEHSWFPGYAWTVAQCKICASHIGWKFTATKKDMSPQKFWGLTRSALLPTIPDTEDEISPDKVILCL
T1 sequence (Q15059 whole entry, the tested form may be a part): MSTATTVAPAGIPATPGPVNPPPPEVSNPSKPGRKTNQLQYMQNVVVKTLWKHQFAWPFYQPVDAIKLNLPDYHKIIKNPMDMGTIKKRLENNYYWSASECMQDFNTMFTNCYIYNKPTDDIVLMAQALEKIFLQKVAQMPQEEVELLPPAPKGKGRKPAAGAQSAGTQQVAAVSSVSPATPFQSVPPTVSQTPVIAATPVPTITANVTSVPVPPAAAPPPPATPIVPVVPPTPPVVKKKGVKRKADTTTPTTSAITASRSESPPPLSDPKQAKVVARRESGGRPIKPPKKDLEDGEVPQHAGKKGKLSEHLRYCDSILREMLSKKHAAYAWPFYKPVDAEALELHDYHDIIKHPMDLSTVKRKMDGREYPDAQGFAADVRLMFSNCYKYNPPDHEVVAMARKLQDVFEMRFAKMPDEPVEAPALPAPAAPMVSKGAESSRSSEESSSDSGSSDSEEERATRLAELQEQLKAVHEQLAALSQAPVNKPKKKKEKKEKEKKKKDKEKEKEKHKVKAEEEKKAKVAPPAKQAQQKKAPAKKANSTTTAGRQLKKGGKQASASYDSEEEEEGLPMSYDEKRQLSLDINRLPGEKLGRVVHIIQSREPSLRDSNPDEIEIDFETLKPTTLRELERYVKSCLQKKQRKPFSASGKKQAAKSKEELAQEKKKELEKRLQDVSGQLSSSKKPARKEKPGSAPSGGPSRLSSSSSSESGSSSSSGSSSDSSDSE
T2 sequence (Q15059 2-726 limits assumed): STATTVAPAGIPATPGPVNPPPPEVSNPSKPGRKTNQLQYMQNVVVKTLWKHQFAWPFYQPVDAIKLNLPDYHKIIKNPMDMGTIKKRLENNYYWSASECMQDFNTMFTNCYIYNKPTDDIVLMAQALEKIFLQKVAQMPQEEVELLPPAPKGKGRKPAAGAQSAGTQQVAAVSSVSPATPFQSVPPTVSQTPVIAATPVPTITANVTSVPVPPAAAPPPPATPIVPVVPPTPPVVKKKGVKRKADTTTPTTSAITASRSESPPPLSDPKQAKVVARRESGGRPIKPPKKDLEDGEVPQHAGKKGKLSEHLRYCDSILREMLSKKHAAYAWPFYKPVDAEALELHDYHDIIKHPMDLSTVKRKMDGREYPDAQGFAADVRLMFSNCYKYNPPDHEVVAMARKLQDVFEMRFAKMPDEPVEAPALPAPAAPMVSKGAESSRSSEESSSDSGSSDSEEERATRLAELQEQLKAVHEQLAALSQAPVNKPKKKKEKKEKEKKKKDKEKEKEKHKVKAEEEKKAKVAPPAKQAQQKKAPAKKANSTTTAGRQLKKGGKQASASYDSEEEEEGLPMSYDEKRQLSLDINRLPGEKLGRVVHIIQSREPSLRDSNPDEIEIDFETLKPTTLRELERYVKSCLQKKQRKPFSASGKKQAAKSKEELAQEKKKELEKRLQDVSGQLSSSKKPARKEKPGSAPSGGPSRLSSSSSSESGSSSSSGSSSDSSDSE
T2 sequence (Q96SW2 whole entry partner): as the sequence (Q96SW2 whole entry, looked up, other chains not shown) above
T3 sequence (P25440 whole entry, looked up): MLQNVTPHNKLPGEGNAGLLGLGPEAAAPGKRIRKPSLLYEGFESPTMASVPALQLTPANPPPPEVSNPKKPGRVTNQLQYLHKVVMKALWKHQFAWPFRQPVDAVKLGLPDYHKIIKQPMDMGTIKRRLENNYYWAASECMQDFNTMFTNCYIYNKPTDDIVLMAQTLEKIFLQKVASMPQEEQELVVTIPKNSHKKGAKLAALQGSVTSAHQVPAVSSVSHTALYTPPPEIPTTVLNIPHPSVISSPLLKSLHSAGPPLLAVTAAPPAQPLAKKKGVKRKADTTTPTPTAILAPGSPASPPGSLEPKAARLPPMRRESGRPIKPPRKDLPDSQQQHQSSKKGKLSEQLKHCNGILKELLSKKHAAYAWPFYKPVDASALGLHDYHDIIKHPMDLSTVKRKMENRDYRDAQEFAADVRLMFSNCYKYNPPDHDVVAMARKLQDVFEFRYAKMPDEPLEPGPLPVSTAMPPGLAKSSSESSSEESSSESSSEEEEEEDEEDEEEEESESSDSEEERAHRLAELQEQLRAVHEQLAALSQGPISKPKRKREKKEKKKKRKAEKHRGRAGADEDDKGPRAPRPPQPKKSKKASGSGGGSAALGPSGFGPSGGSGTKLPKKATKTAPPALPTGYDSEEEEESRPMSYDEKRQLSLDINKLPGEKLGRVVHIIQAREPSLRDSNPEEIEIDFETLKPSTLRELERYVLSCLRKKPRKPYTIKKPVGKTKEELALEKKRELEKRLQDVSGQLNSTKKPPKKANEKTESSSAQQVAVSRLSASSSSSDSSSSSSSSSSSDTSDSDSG
T3 sequence (Q96SW2 whole entry, looked up): as the sequence (Q96SW2 whole entry, looked up, other chains not shown) above

SMILES: Cc1nnc2n1-c1ccc(-c3ccc(CNCCCC#Cc4cccc5c4CN(C4CCC(=O)NC4=O)C5=O)cc3)cc1C(Nc1ccc(Cl)cc1)CC2 (stereo not drawn)
- pIC50 [1]: 5.88
- pKi [2]: 8.30
- pKi [3]: 7.32
- pIC50 [4]: 6.19

SMILES: Cc1sc2c(c1C)C(c1ccc(Cl)cc1)=N[C@@H](CC(=O)NCCCCNC(=O)COc1cccc3c1C(=O)N(C1CCC(=O)NC1=O)C3=O)c1nnc(C)n1-2 (stereo partly drawn)
- Activity [5]: Active
- Activity [6]: Active
- Activity [7]: Active
- Activity [8]: Active
- pIC50 [9]: 4.91
- pIC50 [10]: 5.28
- Activity [11]: Active
- Activity [12]: Active
- Activity [13]: Active
- Activity [14]: Dose-Dependent Effect
- pIC50 [15]: 6.06
- Activity [16]: Active
- Activity [17]: Active
- Activity [18]: inactive
- Activity [19]: Dose-Dependent Effect
- Activity [20]: Active
- Activity [21]: Active
- Activity [22]: Active
- Activity [23]: Active
- Activity [24]: Active
- Activity [25]: Active
- pIC50 [1]: 5.61
- pKi [2]: 8.28
- Activity [26]: Active
- Activity [27]: Active
- pKi [3]: 8.14
- Activity [28]: Active
- Activity [29]: Active
- Activity [30]: Active
- pIC50 [4]: 7.93
- pIC50 [31]: 4.70
- pIC50 [32]: 4.79
- Activity [33]: Active

SMILES: Cc1nnc2n1-c1ccc(-c3ccc(CNCCCc4cccc5c4CN(C4CCC(=O)NC4=O)C5=O)cc3)cc1C(Nc1ccc(Cl)cc1)CC2 (stereo not drawn)
- Activity [34]: inactive
- Activity [35]: inactive
- pIC50 [1]: 5.55
- pKi [2]: 8.61
- pKi [3]: 7.73
- Activity [36]: inactive
- Activity [37]: inactive
- pIC50 [4]: 5.99

SMILES: Cc1nnc2n1-c1ccc(-c3ccc(CNCCC#Cc4cccc5c4CN(C4CCC(=O)NC4=O)C5=O)cc3)cc1C(Nc1ccc(Cl)cc1)CC2 (stereo not drawn)
- pIC50 [1]: 5.47
- pKi [2]: 8.24
- pKi [3]: 7.65
- pIC50 [4]: 5.81

SMILES: Cc1nnc2n1-c1ccc(-c3ccc(CNCCCCC#Cc4cccc5c4CN(C4CCC(=O)NC4=O)C5=O)cc3)cc1C(Nc1ccc(Cl)cc1)CC2 (stereo not drawn)
- pIC50 [1]: 6.80
- pKi [2]: 8.33
- pKi [3]: 7.92
- pIC50 [4]: 7.15

SMILES: Cc1nnc2n1-c1ccc(-c3ccc(CNCCCCCc4cccc5c4CN(C4CCC(=O)NC4=O)C5=O)cc3)cc1C(Nc1ccc(Cl)cc1)CC2 (stereo not drawn)
- Activity [38]: Active
- pIC50 [1]: 6.09
- pKi [2]: 8.27
- pKi [3]: 7.81
- pIC50 [4]: 6.63
- Activity [39]: Active

SMILES: Cc1nnc2n1-c1ccc(-c3cnn(CC(=O)NCCCCC#Cc4cccc5c4CN(C4CCC(=O)NC4=O)C5=O)c3)cc1C(Nc1ccc(Cl)cc1)CC2 (stereo not drawn)
- Activity [34]: inactive
- Activity [35]: inactive
- pIC50 [1]: 5.27
- pKi [2]: 8.18
- pKi [3]: 7.53
- Activity [36]: inactive
- Activity [37]: inactive
- pIC50 [4]: 6.27

SMILES: Cc1nnc2n1-c1ccc(-c3ccc(CNCCCCCC#Cc4cccc5c4CN(C4CCC(=O)NC4=O)C5=O)cc3)cc1C(Nc1ccc(Cl)cc1)CC2 (stereo not drawn)
- Activity [38]: Active
- pIC50 [1]: 6.81
- pKi [2]: 8.23
- pKi [3]: 7.82
- pIC50 [4]: 7.70
- Activity [39]: Active
